The values below come from patent publication US8680049B2 (Zealand Pharma A/S, priority 2008, dated 2014).

Assay [1] deals with T1, human Glucagon-R (Homo sapiens, UniProt P47871).
T1 construct: expressed in transfected cells
Description: Glucagon receptor efficacy assay (cAMP, HEK293 cells). Further: crude peptides with purity of less than 90%. In kind it is cell-based. To be noted: read-out: GLUR EC50. The method, then:
(§1) The 5′-end primers additionally encoded a near Kozak consensus sequence to ensure efficient translation.
(§2) 48 hr after transfection cells were seeded for limited dilution cloning and selected with 1 mg/ml G418 in the culture medium.
(§3) On the day of analysis, growth medium was removed and the cells washed once with 200 μl Tyrode buffer. Cells were incubated in 100 μl Tyrode buffer containing increasing concentrations of test peptides, 100 μM IBMX, and 6 mM glucose for up 15 min at 37° C. The reaction was stopped by addition of 25 μl 0.5 M HCl and incubated on ice for 60 min. The cAMP content was estimated using the FlashPlate® cAMP kit from Perkin-Elmer.

The target in assay [2] is T2, human GLP-1-R (Homo sapiens, UniProt P43220).
T2 construct: expressed in transfected cells
Description: GLP-1 receptor efficacy assay (cAMP, HEK293 cells). On EC50: crude peptides with purity of less than 90%. In kind it is cell-based. The method, then: as §1, §2, §3

Assay [3] concerns db/db mice. The assay can be described thus: Oral glucose tolerance test (OGTT) in db/db mice. To be noted: i.p., 45 nmol/kg. In kind it is in vivo. The method, then: The animals were kept fasted during the experiment to prevent confounding food intake. Fifteen minutes later an oral dose of glucose (1 g/kg in 5 ml/kg) was given and BG levels were measured at t=30 min, t=60 min, t=120 min and t=240 min.
Difference from baseline (t=0) was calculated for each time point and AUC0-240 min values were determined. Statistical analyses of AUC values by one-way ANOVA and Dunnetts post-hoc analyses were performed with GraphPad Prism version 4. Differences were considered significant at the p<0.05 level.

The subject of assay [4] is primary rat adipocytes. In kind it is cell-based. The method, then:
Adipocytes were isolated from epididymal fat dissected from normal young adult Sprague-Dawley rats. The fat lumps were minced, incubated and shaken (220 rpm) with collagenase (1 mg/ml) in Krebs-Ringer buffer containing 4% BSA (KRB-BSA) for 60 minutes at 37° C. The suspension was filtered through a nylon filter (160 μm pore size) and the filtrate centrifuged at 200×g for 3 min. The subjacent medium beneath the upper floating layer of adipocytes was removed with a Pasteur-pipette. The adipocytes were washed 3 times in KRB-BSA buffer by re-suspension and centrifugation. The adipocytes were re-suspended in KRB-BSA, mixed, incubated in and shaken with test compounds in 96-deep well plates (50,000 cells/well) in a total volume of 1 ml at 37° C. for 60 min. The plates were placed on ice for at least 10 min after incubation followed by centrifugation at 200×g for 3 min. 300 μl of the buffer beneath the adipocyte layer were collected in a 96-deep well plate. This process was repeated two more times and the 3 extracts collected from each culture pooled together.

Assay [5] deals with diet induced obese (DIO) mice. The assay can be described thus: 28 day treatment of diet induced obese (DIO) mice: body weight and plasma cholesterols. In kind it is in vivo. The method, then:
Four weeks before drug treatments, C57Bl/6 male mice (7 weeks) (N=9-12 animals in each group) were put on high fat diet (HFD) and their day-night cycle reversed with lights On/Off at 2000/0800 hour. Experimental animals were conditioned to treatment by daily injections (s.c.) of 0.1 ml vehicle and acclimatized to handling by weighing them twice a week one week before start of drug administrations. […] Animals were fasted overnight before sacrifice. An eye blood sample (0.6 ml EDTA) was obtained the following morning immediately before cervical dislocation. Blood plasma samples were stored at −80° C. until analyzed for cholesterol, HDL and LDL using commercially available kits. Body weight gain throughout the treatment period was calculated for each animal by subtracting its weight at the initiation of treatment.
The effects of treatment on body weight gain and cholesterols were assessed by 2-way ANOVA with repeated measures and Bonferoni post-hoc analyses, using GraphPad Prism version 4. Differences were considered significant at the 0.05 level.

In assay [6] the test system is C57Bl/6 mice. Description: Food intake in normal mice. The note with it: fasted mice, s.c.; PYY3-36 30 nmol/kg, glucagon 500 nmol/kg, ZP2663 500 nmol/kg. In kind it is in vivo.
Description: One week before study C57Bl/6 mice (8 weeks) (N=9-12 animals in each group) were conditioned to treatment by daily injections (s.c.) of 0.2 ml vehicle and acclimatized to handling by weighing them twice a week. Mice were stratified one day before start of experiment into groups with similar body weight (BW). […] After one hour pre-weighed food was introduced to the mice and food intake measured by weighing the remaining food after one hour and expressed relative to body weight (mg food/g BW). Statistical analyses of food intake data by one-way ANOVA and Dunnetts post-hoc analyses were performed with GraphPad Prism version 4. Differences were considered significant at the 0.05 level.

In general, EC50 refers to the concentration giving half of the maximal effect.

T1 sequence (P47871 26-477): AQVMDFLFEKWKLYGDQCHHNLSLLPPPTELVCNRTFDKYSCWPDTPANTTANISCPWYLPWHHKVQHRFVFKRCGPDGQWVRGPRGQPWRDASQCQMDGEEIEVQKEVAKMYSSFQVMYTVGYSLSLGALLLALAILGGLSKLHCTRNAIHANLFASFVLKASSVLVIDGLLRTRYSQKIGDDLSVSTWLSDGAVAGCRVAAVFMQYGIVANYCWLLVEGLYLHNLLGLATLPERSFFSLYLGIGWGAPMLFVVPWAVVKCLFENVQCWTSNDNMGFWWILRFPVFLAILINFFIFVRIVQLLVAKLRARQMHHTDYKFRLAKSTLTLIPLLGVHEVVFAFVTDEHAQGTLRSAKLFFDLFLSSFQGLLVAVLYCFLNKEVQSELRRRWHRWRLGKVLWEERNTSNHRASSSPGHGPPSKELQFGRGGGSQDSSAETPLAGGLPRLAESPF
T2 sequence (P43220 24-463): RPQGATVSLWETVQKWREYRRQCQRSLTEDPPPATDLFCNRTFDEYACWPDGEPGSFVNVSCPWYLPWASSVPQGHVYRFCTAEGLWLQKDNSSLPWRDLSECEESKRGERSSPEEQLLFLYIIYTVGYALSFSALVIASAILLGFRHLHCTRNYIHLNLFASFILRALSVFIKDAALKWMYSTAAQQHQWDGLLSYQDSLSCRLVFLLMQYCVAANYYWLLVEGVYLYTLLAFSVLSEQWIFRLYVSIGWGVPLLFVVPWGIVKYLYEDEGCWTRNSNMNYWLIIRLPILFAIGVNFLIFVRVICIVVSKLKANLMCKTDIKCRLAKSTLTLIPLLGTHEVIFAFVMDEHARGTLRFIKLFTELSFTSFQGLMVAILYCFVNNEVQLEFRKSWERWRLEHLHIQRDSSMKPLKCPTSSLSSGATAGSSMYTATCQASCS

As for `CC[C@H](C)[C@H](NC(=O)[C@H](Cc1ccccc1)NC(=O)[C@H](CC(=O)O)NC(=O)[C@H](CCC(N)=O)NC(=O)[C@H](C)NC(=O)[C@H](CCCNC(=N)N)NC(=O)[C@H](CCCNC(=N)N)NC(=O)[C@H](CO)NC(=O)[C@H](CC(=O)O)NC(=O)[C@H](CC(C)C)NC(=O)[C@H](Cc1ccc(O)cc1)NC(=O)[C@H](CCCCN)NC(=O)[C@H](CO)NC(=O)[C@H](Cc1ccc(O)cc1)NC(=O)[C@H](CC(=O)O)NC(=O)[C@H](CO)NC(=O)[C@@H](NC(=O)[C@H](Cc1ccccc1)NC(=O)[C@@H](NC(=O)CNC(=O)[C@H](CCC(N)=O)NC(=O)[C@H](CO)NC(=O)[C@@H](N)Cc1c[nH]cn1)[C@@H](C)O)[C@@H](C)O)C(=O)N[C@@H](CCC(=O)O)C(=O)N[C@@H](Cc1c[nH]c2ccccc12)C(=O)N[C@@H](CC(C)C)C(=O)N[C@@H](CC(C)C)C(=O)N[C@@H](CO)C(=O)N[C@@H](C)C(N)=O` [Compound L006-0090], the concentration for a half-maximal effect (EC50) in assay [1] came to 0.22 nM; in assay [2], 0.15 nM.
Regarding `CC[C@H](C)[C@H](NC(=O)[C@H](Cc1ccccc1)NC(=O)[C@H](CC(=O)O)NC(=O)[C@H](CCCCN)NC(=O)[C@H](C)NC(=O)[C@H](CCCNC(=N)N)NC(=O)[C@H](CCCNC(=N)N)NC(=O)[C@H](CCC(=O)O)NC(=O)[C@H](CC(=O)O)NC(=O)[C@H](CC(C)C)NC(=O)[C@H](Cc1ccc(O)cc1)NC(=O)[C@H](CCCCN)NC(=O)[C@H](CO)NC(=O)[C@H](Cc1ccc(O)cc1)NC(=O)[C@H](CC(=O)O)NC(=O)[C@H](CO)NC(=O)[C@@H](NC(=O)[C@H](Cc1ccccc1)NC(=O)[C@@H](NC(=O)CNC(=O)[C@H](CCC(N)=O)NC(=O)[C@H](CO)NC(=O)[C@@H](N)Cc1c[nH]cn1)[C@@H](C)O)[C@@H](C)O)C(=O)N[C@@H](CCC(=O)O)C(=O)N[C@@H](Cc1c[nH]c2ccccc12)C(=O)N[C@@H](CC(C)C)C(=O)N[C@@H](CC(C)C)C(=O)N[C@@H](CO)C(=O)N[C@@H](C)C(N)=O` [ZP2663], the “improvement of glucose tolerance” value in assay [3] amounted to 64.9%. In assay [3] (AUC0-240 min), the “glucose tolerance during OGTT (in words)” value is listed as “significantly improved glucose tolerance”. Further, in assay [4], the EC50 was found to be 4.4 nM and the “effect on lipolysis in primary adipocyte cultures (in words)” value was “equipotent with glucagon”. Besides, the “body weight gain (in words)” value in assay [5] (500 nmol/kg b.i.d. s.c., 28 days) is “decreased body weight gain to a level similar to that observed with chow feeding”. For the same compound, the “blood concentration of LDL cholesterol vs vehicle (in words)” value in assay [5] (4 weeks b.i.d.) is “statistically significantly different from the vehicle group”. Further, in assay [5] (4 weeks treatment), the “fat deposition (in words)” value was “significantly decreased fat deposition”. Moreover, the “food intake during the first hour (in words)” value in assay [6] is reported as “significantly decreased food intake”.
Regarding Exendin-4, the “EC50, stimulation of lipolysis in primary rat adipocyte cultures” value in assay [4] (60 min, glycerol formed) was “No effect”. Besides, the “GLP-1R agonist activity (in words)” value in assay [2] is reported as “very potent GLP-1R agonist”.
As to “H-HSQGTFTSDYSKYLDDRRARDFIDWLLSA-NH2 [Compound L006-0093]”, the values for the concentration giving a half-maximal response (EC50) in assay [1] and in assay [2] were 0.1 nM and 0.07 nM, respectively.
In the same order, the values of “H-HSQGTFTSDYSKYLDERAAKDFIEWLLSA-NH2 [Compound L006-0108]” are 0.81 nM and 0.53 nM.
For “H-HSQGTFTSDYSKYLDERRAKDFIDWLLSA-NH2 [Compound L006-0129]”, in that order: 0.24 nM and 0.2 nM.
As to “H-HSQGTFTSDYSKYLDERRAKDFIEWLLAA-NH2 [Compound L006-0136]”, the results for the concentration giving a half-maximal response (EC50) in assay [1] and in assay [2] were 0.33 nM and 0.22 nM, respectively.
For “H-HSQGTFTSDYSKYLDERRAKDFIEWLLRA-NH2 [Compound L006-0138]”, in that order: 0.38 nM and 0.29 nM.
As to “H-HSQGTFTSDYSKYLDERRAKDFIQWLLSA-NH2 [Compound L006-0084]”, the EC50 in assay [1] was 0.13 nM; in assay [2], 0.07 nM.
“H-HSQGTFTSDYSKYLDERRAKDFIRWLLSA-NH2 [Compound L006-0128]”: the EC50 amounted to 0.22 nM in assay [1] and 0.16 nM in assay [2].
The compound “H-HSQGTFTSDYSKYLDERRAQDFIEWLLSA-NH2 [Compound L006-0082]” gave an EC50 in assay [2] of 0.09 nM.
For “H-HSQGTFTSDYSKYLDKRRAEDFIKWLLSA-NH2 [Compound L006-0094]”, the figures for the EC50 in assay [1] and in assay [2] were 0.25 nM and 0.16 nM, respectively.
Regarding “H-HSQGTFTSDYSKYLDSRRAKDFIEWLLSA-NH2 [Compound L006-0081]”, the EC50 in assay [1] stood at 0.23 nM; in assay [2], 0.14 nM.
For the compound “PYY(3-36): internal positive control for food intake (anorectic peptide) [reference compound]”, the “food intake during the first hour (in words)” value in assay [6] is “anorectic effect”.
